≈ marks a conversion by molar mass, not a printed value.
Key:
[1] = test system: early third-instar larvae of Ae. albopictus; assay: Direct-contact mortality bioassay, Ae. albopictus larvae; conditions: for LC50 (Ae. albopictus), mg/L (95% CL): early third-instar larvae, 24 h exposure, direct contact; for LC50: Aedes albopictus, 24 h, read-out: LC50 (Ae. albopictus), mg/L (95% CL)
Protocol: (§1) Direct-contact mortality bioassays were employed to evaluate the toxicity of all compounds, using early third-instar larvae of each mosquito species. Each compound was dissolved in methanol, and then further diluted in distilled water containing Triton X-100 (20 µL/L). Groups of 20 mosquito larvae of each species were put into separate paper cups (270 mL), each containing different compound solutions (250 mL). The toxicity of each compound was determined by repeating this experimental procedure with different concentrations, ranging from 5 to 200 mg/L. Temephos and fenthion served as standard references and were similarly formulated as well. Controls contained only methanol-Triton X-100 carrier solution in distilled water.
(§2) Both treated and control larvae were kept under the same conditions as those used for colony maintenance. […] Due to certain constraints arising from the number of available larvae, all necessary bioassays could not be conducted simultaneously and thus, treatments were conducted over a period of time, with a separate control treatment included each time. Freshly prepared compound solutions were used for each round of bioassays. All bioassays were repeated three times.
(§3) Concentration-mortality data were subjected to probit analysis using SAS [20]. […] Furthermore, for the compounds tested in AChE inhibition assays, a correlation analysis between their LC50 values and IC50 values was conducted using SAS [20].

[2] = test system: early third-instar larvae of Ae. aegypti; assay: Direct-contact mortality bioassay, Ae. aegypti larvae; conditions: for LC50 (Ae. aegypti), mg/L (95% CL): early third-instar larvae, 24 h exposure, direct contact; for LC50: Aedes aegypti, 24 h, read-out: LC50 (Ae. aegypti), mg/L (95% CL)
Protocol: as §1, §2, §3

[3] = test system: early third-instar larvae of Cx. p. pallens; assay: Direct-contact mortality bioassay, laboratory-reared Cx. p. pallens larvae; conditions: for LC50 (Cx p. pallens), mg/L (95% CL): laboratory-reared early third-instar larvae, 24 h exposure, direct contact; for LC50: Culex pipiens, 24 h, read-out: LC50 (Cx p. pallens), mg/L (95% CL)
Protocol: as §1, §2, §3

[4] = test system: field-collected larvae of Cx. p. pallens; assay: Semi-field bioassay, field-collected Cx. p. pallens larvae
Protocol: Larvae of wild mosquitoes were field-collected from irrigated rice fields in Yongin, Korea in early August 2012. A satellite view of the larvae collection site is included in Figure 1 [13].
The buckets were treated with test compounds and covered with nylon mesh screen to prevent other mosquitoes and insects from laying eggs. The buckets were then placed back at the initial collection site and were allowed to stand for 24 h, after which the mortality data were recorded. Temephos and fenthion served as standard references.
as §3

SMILES	LC50 (Ae. albopictus), mg/L (95% CL) [1]	LC50 (Ae. aegypti), mg/L (95% CL) [2]	LC50 (Cx p. pallens), mg/L (95% CL) [3]	LC50 [1]	LC50 [2]	LC50 [3]	LC50 ([4]; Culex pipiens, 24 h, read-out: LC50, mg/L, Field-collected)	Resistance ratio ([4]; field-collected vs laboratory-reared Cx. p. pallens larvae (LC50 ratio))
CC1=C[C@H](O)[C@H]2C[C@@H]1C2(C)C (relative stereo) [(S)-cis-verbenol]	136.86 (121.92–161.87) mg/L	>150 mg/L	140.41 (124.89–167.57) mg/L					
CC1(C)[C@@H]2CC[C@H](CO)[C@H]1C2 (relative stereo) [(−)-cis-myrtanol]	>150 mg/L	>150 mg/L	>150 mg/L					
CC(C)=CCCC(C)CC=O (single isomer, unassigned; (+)) [(+)-citronellal]	46.39 (41.08–52.95) mg/L	48.23 (42.42–55.64) mg/L	49.47 (43.52–57.04) mg/L					
C=C(C)C1CC=C(C)CC1 (single isomer, unassigned; (+)) [(+)-limonene]				10.8 mg/L (≈ 79.1 µM)	15.3 mg/L (≈ 112 µM)	10.8 mg/L (≈ 79 µM)	10.5 mg/L (≈ 77.4 µM)	0.98
CC1=CCC(O)(C(C)C)CC1 (single isomer, unassigned; (+)) [(+)-terpinen-4-ol]	98.28 (91.85–105.07) mg/L	78.73 (71.24–85.73) mg/L	86.25 (78.22–95.55) mg/L					
CC1(C)C2CC=C(CO)C1C2 (single isomer, unassigned; (-)) [(−)-myrtenol]	>150 mg/L	>150 mg/L	>150 mg/L					
CC12CCC(CC1)C(C)(C)O2 [1,8-cineole]				73.5 mg/L (≈ 476 µM)	73.3 mg/L (≈ 475 µM)	72.9 mg/L (≈ 472 µM)		
CC1=CC[C@@H]2C[C@H]1C2(C)C [(1R)-(+)-α-pinene]				55.6 mg/L (≈ 408 µM)	51.3 mg/L (≈ 376 µM)	60.8 mg/L (≈ 447 µM)		
CC1=CC[C@H]2C[C@@H]1C2(C)C [(1S)-(−)-α-pinene]				28.6 mg/L (≈ 210 µM)	40 mg/L (≈ 293 µM)	32 mg/L (≈ 235 µM)		
CC(C)=CCCC(C)CCO (stereo not drawn) [(+)-β-citronellol]	90.89 (83.26–99.00) mg/L	93.46 (85.80–101.82) mg/L	87.81 (80.62–95.50) mg/L					
C=C(C)[C@H]1CC=C(C)C(=O)C1 [(S)-(+)-carvone]	43.83 (41.78–45.91) mg/L	42.14 (39.62–44.62) mg/L	46.19 (43.54–49.12) mg/L					
CC(C)=CCC[C@H](C)CC=O [(−)-citronellal]				41.1 mg/L (≈ 266 µM)	37.5 mg/L (≈ 243 µM)	41.9 mg/L (≈ 272 µM)		
CC1=CC(=O)[C@H]2C[C@@H]1C2(C)C [(−)-verbenone]				89.4 mg/L (≈ 595 µM)	96.8 mg/L (≈ 644 µM)	89.1 mg/L (≈ 593 µM)		
CC(C)=CCCC(C)CCO (stereo not drawn) [(−)-β-citronellol]	71.99 (64.67–80.37) mg/L	75.31 (68.31–83.22) mg/L	66.26 (59.63–73.33) mg/L					
C=C1CC[C@@H]2[C@H]([C@@H]3[C@H](C)CC[C@@H]13)C2(C)C [Aromadendrene]	129.21 (118.02–145.97) mg/L	>150 mg/L	147.91 (127.93–188.26) mg/L					
CC1(C)C2CCC1(C)C(O)C2 (centres unmarked) [Borneol]				> 150 mg/L	> 150 mg/L	> 150 mg/L		
CC(=O)OC1CC2CCC1(C)C2(C)C (centres unmarked) [Bornyl acetate]				> 150 mg/L	> 150 mg/L	> 150 mg/L		
C=C1C2CCC(C2)C1(C)C (centres unmarked) [Camphene]				79.1 mg/L (≈ 581 µM)	72.9 mg/L (≈ 535 µM)	80.1 mg/L (≈ 588 µM)		
CC12CCC(CC1=O)C2(C)C (centres unmarked) [Camphor]				> 150 mg/L	> 150 mg/L	> 150 mg/L		
Cc1ccc(C(C)C)cc1O [Carvacrol]				95 mg/L (≈ 633 µM)	101 mg/L (≈ 673 µM)	91.9 mg/L (≈ 612 µM)		
C=C(C)C1CC=C(C)[C@@H](O)C1 (some centres unmarked) [Carveol]				121 mg/L (≈ 796 µM)	124 mg/L (≈ 814 µM)	114 mg/L (≈ 746 µM)		

Reference: paper PMC4553520, “Laboratory and Simulated Field Bioassays to Evaluate Larvicidal Activity of Pinus densiflora Hydrodistillate, Its Constituents and Structurally Related Compounds against Aedes albopictus, Aedes aegypti and Culex pipiens pallens in Relation to Their Inhibitory Effects on Acetylcholinesterase Activity” (Insects, 2013)
